The subject of assay [1] is KMS12 multiple myeloma cells. Nature of the assay: [3H]thymidine incorporation assay in KMS12. The class given is cell-based, human.
Procedure: In these latter assays, the effects of Z-DTPs, Ac-DTPs and Z-LTPs on the survival/proliferation of tumour cell lines was investigated by measuring DNA synthesis using standard tritiated thymidine ([^3H]thymidine; [^3H]-TdR) uptake assays. In the analyses shown, cells were incubated for 24, 72, 120 or 144 hrs at 37° C. in the presence or absence of control or bioactive tetrapeptides, as indicated, then subjected to an additional incubation for 18 hrs with [^3H]-TdR (0.037 MBq/well, equivalent to 0.5 μCi/well). Cells were subsequently harvested onto glass fibre filter mats using a 96-well plate automated cell harvester, after which scintillation fluid was added, and [^3H]thymidine incorporation measured by liquid scintillation spectroscopy on a beta counter. The results are expressed as the percentages of the counts per minute (c.p.m.) (directly correlating with the extent of cell proliferation) measured with tetrapeptide-treated cultures relative to the c.p.m. measured with the corresponding cultures incubated with medium alone (untreated cells). All experiments were performed in triplicate.
The subject of assay [2] is KMS11 multiple myeloma cells. Nature of the assay: [3H]thymidine incorporation assay in KMS11. The class given is cell-based, human. The procedure: Cultures of multiple myeloma cells and treatments with Z-DTPs were carried out as described in Example 8 (see below). The effects of Z-DTPs on the survival/proliferation of multiple myeloma cells were evaluated by the use of [^3H]thymidine) incorporation assays, performed as also described in Example 8. The amount of cell proliferation measured with each of the Z-DTPs' concentrations used and with the untreated cultures (i.e. cultures incubated with medium alone), was expressed as counts per minute (c.p.m.)—which directly correlate with the extent of cell proliferation. All experiments were performed in triplicate.
In these latter assays, the effects of Z-DTPs, Ac-DTPs and Z-LTPs on the survival/proliferation of tumour cell lines was investigated by measuring DNA synthesis using standard tritiated thymidine ([^3H]thymidine; [^3H]-TdR) uptake assays. In the analyses shown, cells were incubated for 24, 72, 120 or 144 hrs at 37° C. in the presence or absence of control or bioactive tetrapeptides, as indicated, then subjected to an additional incubation for 18 hrs with [^3H]-TdR (0.037 MBq/well, equivalent to […]). Cells were subsequently harvested onto glass fibre filter mats using a 96-well plate automated cell harvester, after which scintillation fluid was added, and [^3H]thymidine incorporation measured by liquid scintillation spectroscopy on a beta counter. The results are expressed as the percentages of the counts per minute (c.p.m.) (directly correlating with the extent of cell proliferation) measured with tetrapeptide-treated cultures relative to the c.p.m. measured with the corresponding cultures incubated with medium alone (untreated cells). All experiments were performed in triplicate.

Assay [3] deals with T1, Gadd45β/MKK7 interaction (Homo sapiens, UniProt O14733).
T1 construct: The GST-fused full-length kinase was coated for 16 h at 4° C., at a concentration of 42 nM; made in house
T1 sequence (O14733 1-419): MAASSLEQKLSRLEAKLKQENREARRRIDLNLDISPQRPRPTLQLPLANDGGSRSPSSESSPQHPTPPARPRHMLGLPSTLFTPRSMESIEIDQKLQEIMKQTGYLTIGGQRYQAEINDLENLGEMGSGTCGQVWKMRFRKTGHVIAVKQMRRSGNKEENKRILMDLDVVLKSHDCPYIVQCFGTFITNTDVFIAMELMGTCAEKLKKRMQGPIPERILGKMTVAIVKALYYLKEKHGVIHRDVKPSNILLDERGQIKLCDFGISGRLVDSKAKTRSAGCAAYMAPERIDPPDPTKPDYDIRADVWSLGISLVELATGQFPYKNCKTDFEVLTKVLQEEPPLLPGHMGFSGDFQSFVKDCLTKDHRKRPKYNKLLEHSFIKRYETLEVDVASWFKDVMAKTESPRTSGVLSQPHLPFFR
Nature of the assay: ELISA competition assay of biotin-hGadd45β binding to coated GST-MKK7. The conditions noted are these: Table V, read-out: IC50 ELISA. The procedure:
To evaluate the inhibitory properties of peptides, ELISA-based assays were performed. In these assays, a fusion protein of glutathione S-transferase (GST) and mitogen-activated protein kinase kinase 7 (MKK7) was coated onto wells of a 96-well plate, while biotinylated-hGadd45β was used in solution. hGadd45β was biotinylated using an EZ Link NHS-LC-biotin kit (Pierce, Rockford, Ill.), according to Tornatore et al. (Tornatore L., et al. (2008). J Mol Biol; 378:97-111).
Firstly, the association between Gadd45β and MKK7 was investigated by ELISA assays as also reported in Tornatore et al. (Tornatore L., et al. (2008). J Mol Biol; 378:97-111). The GST-fused full-length kinase was coated for 16 h at 4° C., at a concentration of 42 nM in buffer A (25 mM Tris pH 7.5, 150 mM NaCl, 1 mM DTT and 1 mM EDTA) into wells of a 96-well microliter plate. Some wells were filled with buffer alone and were used as blanks. After incubation for 16 h at 4° C., the solutions were removed and the wells were filled with 350 μL of a 1% (w/v) solution of NFDM (Non Fat Dry Milk) in PBS (phosphate buffered saline). The plate was incubated for 1 h at 37° C. in the dark. After washing with buffer T-PBS (PBS with 0.004% (v/v) Tween detergent), the wells were filled with 100 μL of biotinylated-hGadd45β at concentrations ranging from 8.4 nM to 168 nM. Each data point was performed in triplicate. Following incubation for 1 hr in the dark at 37° C. the solutions were removed and the wells were again washed with T-PBS. Then 100 μL of a 1:10,000 dilution of horseradish peroxidase-conjugated streptavidin dissolved in buffer was added to each well and the plate incubated for 1 hr at 37° C. in the dark. After removal of the enzyme solution and washing, 100 μL of the chromogenic substrate o-phenylendiamine (0.4 mg/mL in 50 mM sodium phosphate-citrate buffer, containing 0.4 mg/mL of urea in hydrogen peroxide) was added and the colour was allowed to develop in the dark for 5 min. The reaction was stopped by adding 50 μL of 2.5 M H2SO4. The absorbance at 490 nm was measured in all wells and the values were averaged after subtracting the corresponding blanks. Bound protein was then detected as described above. The molar concentration of biotinylated-hGadd45β at which the half-maximal ELISA signal is detected corresponds to the dissociation constant (KD) (Friguet B, Chaffotte A F, Djavadi-Ohaniance L, Goldberg M E. J Immunol Methods. 1985 Mar. 18; 77 (2):305-19). Binding competition assays were performed by coating GST-MKK7 at 42 nM as described, a concentration of biotinylated-hGadd45β of 21 nM (pre-saturation conditions 1:0.5 mol/mol ratio) and, in a first test, using competitors at 21 nM. The binding of biotinylated hGadd45β to GST-MKK7 was analyzed in the presence of increasing amounts of competitor peptide (concentrations ranging from 0.01 nM to 100 nM), and the values obtained with the competitor were expressed as the percentage of the binding detected in the absence of competitor. […] According to the convention adopted in the table “L-Xaa” and “D-Xaa” refer to the L and D forms of amino acid Xaa.
A simplified combinatorial peptide library (Marasco et al. 2008, Curr. Protein Pept. Sci. 9:447-67) was screened for antagonists of the Gadd45β/MKK7 interaction. This library contained a total of 12^4=20,736 different tetrapeptides formed by combinations of the following amino acid residues Gln (Q), Ser (S), Arg (R), Ala (A), Tyr (Y), Pro (P), Met (M), Cys (C), Phe (F), Leu (L), His (H), Asp (D), and was iteratively deconvoluted in four steps by ELISA competition assays using at each step coated MKK7 (42 nM), soluble-biotin-hGadd45β (21 nM) and each of the 12 sub-libraries (42 nM).

The mark [4] stands for this setting: Day 3, read-out: IC50 [H^3] thymidine incorporation assay in KMS11.
[5] abbreviates: Day 6, read-out: IC50 [H^3] thymidine incorporation assay in KMS11.
Where [6] appears, read: Day 1, read-out: IC50 [H^3] thymidine incorporation assay in KMS11.

Where two headings read alike, the source gives them in different places. Square brackets hold non-standard residues; d marks the D form. Peptide text beside a SMILES is read from it. * marks the point of attachment. NHPhenethyl = c1ccc(CCN*)cc1; Cbz = O=C(OCc1ccccc1)*; NHBn = c1ccc(CN*)cc1; Bz = O=C(c1ccccc1)*; NHPh = c1ccc(N*)cc1

For `O=C(O)C[C@@H](NC(=O)c1ccccc1)C(=O)N[C@H](Cc1c[nH]cn1)C(=O)Nc1ccccc1` [Compound 2, X1-Asp-His-Y1] (Bz-[dD]-[dH]-NHPh), the IC50 was greater than 10 µM in assay [1], greater than 10 µM in assay [2] and greater than 0.001 µM in assay [3] (FIG. 3C).

Consider `O=C(O)C[C@@H](NC(=O)c1ccccc1)C(=O)N[C@H](Cc1c[nH]cn1)C(=O)NCc1ccccc1` [Compound 3, X1-Asp-His-Y2] (Bz-[dD]-[dH]-NHBn), for which the results for the IC50 in assay [1], in assay [2] and in assay [3] (FIG. 3C) were greater than 10 µM, greater than 10 µM and greater than 0.001 µM, respectively.

For the compound `O=C(O)C[C@@H](NC(=O)c1ccccc1)C(=O)N[C@H](Cc1c[nH]cn1)C(=O)NCCc1ccccc1` [Compound 4, X1-Asp-His-Y3] (Bz-[dD]-[dH]-NHPhenethyl), the figures for the IC50 in assay [1], in assay [2] and in assay [3] (peptides 0.01-10 nM) were greater than 10 µM, greater than 10 µM and 0.0005 µM, respectively.

Take `O=C(O)C[C@@H](NC(=O)c1ccc(O)cc1)C(=O)N[C@H](Cc1c[nH]cn1)C(=O)Nc1ccccc1` [Compound 5, X2-Asp-His-Y1]: the IC50 in assay [1] and in assay [2] was greater than 10 µM throughout.

For the compound `O=C(O)C[C@@H](NC(=O)c1ccc(O)cc1)C(=O)N[C@H](Cc1c[nH]cn1)C(=O)NCc1ccccc1` [Compound 6, X2-Asp-His-Y2], the IC50 in assay [1] and in assay [2] was greater than 10 µM each time.

`NC(=O)[C@@H](Cc1ccccc1)NC(=O)[C@@H](CC(=O)O)NC(=O)[C@@H](Cc1ccc(O)cc1)NC(=O)OCc1ccccc1` [Compound 8, Z-Tyr-Asp-Phe-NH2] (Cbz-[dY]-[dD]-[dF]-NH2): the figures for the IC50 in assay [2] (setting [4]), in assay [2] (setting [5]) and in assay [3] (peptides 0.01-10 nM) were greater than 10 µM, greater than 10 µM and 0.000162 µM, respectively.

Consider `N=C(N)NCCC[C@@H](NC(=O)[C@@H](CC(N)=O)NC(=O)[C@@H](Cc1ccc(O)cc1)NC(=O)OCc1ccccc1)C(=O)N[C@H](Cc1ccccc1)C(N)=O` [Z-Tyr-Asn-Arg-Phe-NH2] (Cbz-[dY][dN][dR][dF]-NH2), for which the IC50 in assay [2] (setting [6]), in assay [2] (setting [4]) and in assay [2] (setting [5]) was greater than 10 µM in each case.

`NC(=O)C[C@@H](NC(=O)[C@@H](Cc1ccc(O)cc1)NC(=O)OCc1ccccc1)C(=O)N[C@H](Cc1ccccc1)C(N)=O` [Z-Tyr-Asn-Phe-NH2] (Cbz-[dY]-[dN]-[dF]-NH2): the IC50 in assay [2] (setting [6]), in assay [2] (setting [4]) and in assay [2] (setting [5]) was greater than 10 µM each time.

`N=C(N)NCCC[C@@H](NC(=O)[C@@H](CCC(N)=O)NC(=O)[C@@H](Cc1ccc(O)cc1)NC(=O)OCc1ccccc1)C(=O)N[C@H](Cc1ccccc1)C(N)=O` [Z-Tyr-Gln-Arg-Phe-NH2] (Cbz-[dY][dQ][dR][dF]-NH2): the IC50 in assay [2] (setting [6]), in assay [2] (setting [4]) and in assay [2] (setting [5]) was greater than 10 µM in each case.

On to `NC(=O)CC[C@@H](NC(=O)[C@@H](Cc1ccc(O)cc1)NC(=O)OCc1ccccc1)C(=O)N[C@H](Cc1ccccc1)C(N)=O` [Z-Tyr-Gln-Phe-NH2] (Cbz-[dY]-[dQ]-[dF]-NH2), for which the IC50 in assay [2] (setting [6]), in assay [2] (setting [4]) and in assay [2] (setting [5]) was greater than 10 µM throughout.

For the compound `CC(C)C[C@@H](NC(=O)[C@@H](Cc1ccc(O)cc1)NC(=O)OCc1ccccc1)C(=O)N[C@H](CCCNC(=N)N)C(=O)N[C@H](Cc1ccccc1)C(N)=O` [Z-Tyr-Leu-Arg-Phe-NH2] (Cbz-[dY][dL][dR][dF]-NH2), the IC50 in assay [2] (setting [6]), in assay [2] (setting [4]) and in assay [2] (setting [5]) was greater than 10 µM in each case.

As to `CC(C)C[C@@H](NC(=O)[C@@H](Cc1ccc(O)cc1)NC(=O)OCc1ccccc1)C(=O)N[C@H](Cc1ccccc1)C(N)=O` [Z-Tyr-Leu-Phe-NH2] (Cbz-[dY]-[dL]-[dF]-NH2), the IC50 in assay [2] (setting [6]), in assay [2] (setting [4]) and in assay [2] (setting [5]) was greater than 10 µM each time.

For `CSCC[C@@H](NC(=O)[C@@H](Cc1ccc(O)cc1)NC(=O)OCc1ccccc1)C(=O)N[C@H](CCCNC(=N)N)C(=O)N[C@H](Cc1ccccc1)C(N)=O` [Z-Tyr-Met-Arg-Phe-NH2] (Cbz-[dY][dM][dR][dF]-NH2), the IC50 in assay [2] (setting [6]), in assay [2] (setting [4]) and in assay [2] (setting [5]) was greater than 10 µM each time.

In the case of `CSCC[C@@H](NC(=O)[C@@H](Cc1ccc(O)cc1)NC(=O)OCc1ccccc1)C(=O)N[C@H](Cc1ccccc1)C(N)=O` [Z-Tyr-Met-Phe-NH2] (Cbz-[dY]-[dM]-[dF]-NH2), the IC50 in assay [2] (setting [6]), in assay [2] (setting [4]) and in assay [2] (setting [5]) was greater than 10 µM in each case.

The record behind these values is patent publication US8993717B2, “Gadd45beta targeting agents” (Imperial Innovations Limited, priority 2009, dated 2015).
